Results published in patent publication US20200237759A1, “DOSAGE REGIME AND METHOD FOR TREATING PULMONARY ARTERIAL HYPERTENSION” (Altavant Sciences GmbH, priority 2019, published 2020).

Experiment: Thermodynamic stability of crystalline forms
Type: physicochemical
Details: compared to Form 1

CCOC(=O)[C@@H]1CC2(CCN(c3cc(O[C@H](c4ccc(Cl)cc4-c4ccccc4)C(F)(F)F)nc(N)n3)CC2)CN1 [Form 3, (S)-ethyl 8-(2-amino-6-((R)-1-(5-chloro-[1,1′-biphenyl]-2-yl)-2,2,2-trifluoroethoxy)pyrimidin-4-yl)-2,8-diazaspiro[4.5]decane-3-carboxylate]
thermodynamic stability: substantially greater thermodynamic stability compared to Form 1
